For assay [1], the system named is Ab-1. Nature of the assay: Kinetic binding via BLI (Octet): Ab-1 binding to peptide-loaded sensors. Further details: species or system human. To be noted: Table 15, 100 nM Ab-1. The procedure: Kinetic binding of the peptides of Table 1 to Ab-1 was evaluated using biolayer interferometry (BLI). Briefly, biotinylated peptides were loaded onto a streptavidin coated Octet® SAX biosensor, quenched in biocytin, and baselined in buffer. Ab-1 was titrated in solution and associated onto the peptide loaded sensor. After a short association period, sensors were transferred into buffer and the dissociation of bound Ab-1 was measured. Association and dissociation signals were recorded in real time and analyzed using a 1:1 binding model within the instrument software. Analysis using a 1:1 binding model enabled the calculation of the on and off rate constants as well as affinity, KD.
(In general: BLI is a label-free optical method that tracks binding on a fibre tip over time.)

Assay [2] has as its target anti-CD28 Fab (SEQ ID NOs: 202, 203). Nature of the assay: Competition ELISA: peptide inhibition of anti-CD28 Fab binding to plate-bound CD28 (also alanine scanning peptides). To be noted: anti-CD28 Fab fixed at 1 nM, titrated 0-100 μM peptides, plate-bound CD28 antigen; read-out: anti-CD28 Fab Competition ELISA IC50. The procedure: Ab-1 fixed at 1 nanomolar (nM) concentration was pre-incubated with 0-100 micromolar (μM) titrated peptides. After a short pre-incubation period, the mixture of titrated peptide with fixed Ab-1 were added to the CD28 antigen coated plates. After a short incubation on the plates, bound Ab-1 was detected with a standard horse radish peroxidase conjugated secondary antibody.
(§1) The anti-CD28 Fab was fixed at a concentration of 1 nM and incubated with titrated 0-100 μM peptides.
A general note: ELISA stands for enzyme-linked immunosorbent assay.

Assay [3] deals with anti-CD28 scFv (disulfide) (SEQ ID NO: 67). Description: Competition ELISA: peptide inhibition of anti-CD28 scFv (disulfide) binding to plate-bound CD28. The following applies: read-out: anti-CD28 scFv (disulfide) Competition ELISA IC50; anti-CD28 scFv fixed at 0.3 nM, titrated 0-100 μM peptides, plate-bound CD28 antigen. Here is the method:
[…] After a short pre-incubation period, the mixture of titrated peptide with fixed Ab-1 were added to the CD28 antigen coated plates. After a short incubation on the plates, bound Ab-1 was detected with a standard horse radish peroxidase conjugated secondary antibody.
as §1

anti-CD28 scFv (disulfide) (SEQ ID NO: 67), sequence (as listed by the source): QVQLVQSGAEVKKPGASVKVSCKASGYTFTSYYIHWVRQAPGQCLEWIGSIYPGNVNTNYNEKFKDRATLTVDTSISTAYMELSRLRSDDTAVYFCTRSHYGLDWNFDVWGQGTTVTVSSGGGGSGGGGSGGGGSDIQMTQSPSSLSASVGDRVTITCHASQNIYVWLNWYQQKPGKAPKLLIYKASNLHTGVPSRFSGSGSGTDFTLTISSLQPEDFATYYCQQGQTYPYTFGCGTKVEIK
anti-CD28 Fab (SEQ ID NOs: 202, 203), sequence (as listed by the source): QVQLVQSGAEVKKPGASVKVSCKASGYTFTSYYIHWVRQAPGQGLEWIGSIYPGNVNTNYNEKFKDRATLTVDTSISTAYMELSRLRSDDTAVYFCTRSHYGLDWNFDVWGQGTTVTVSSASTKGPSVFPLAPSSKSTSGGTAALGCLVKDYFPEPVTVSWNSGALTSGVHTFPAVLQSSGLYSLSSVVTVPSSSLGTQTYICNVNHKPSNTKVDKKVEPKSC
anti-CD28 Fab (SEQ ID NOs: 202, 203), sequence (as listed by the source): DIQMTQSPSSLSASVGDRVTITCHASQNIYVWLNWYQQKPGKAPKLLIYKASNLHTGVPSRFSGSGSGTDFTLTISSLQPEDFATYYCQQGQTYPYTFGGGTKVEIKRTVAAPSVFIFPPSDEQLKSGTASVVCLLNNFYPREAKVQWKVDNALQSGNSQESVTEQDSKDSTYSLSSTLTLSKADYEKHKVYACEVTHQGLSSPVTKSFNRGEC

Turning to Met(O)2-DWCPRDLWVHCFA [Peptide-21], the “Octet signal (20 nM peptide)” value in assay [1] came out at 0.4179. Still for that read-out and setting: to Met(O)-DWCPRDLWVHCFA [Peptide-20] belongs 0.1733. Turning to “YCAGHAWQYINACL [Peptide-67, alanine scanning peptide of Peptide-39]”, the IC50 in assay [2] and in assay [3] was greater than 100 µM in each case.

What is called IC50 is the concentration at which inhibition is half-maximal.

Values taken from US20260274955A1, “ANTIBODIES FOR TARGETING CD28 AND USES THEREOF” (Janux Therapeutics, Inc., priority 2023, published 2026).
